Measured values from US8846719B2, “Isoxazolo-pyridine derivatives” (Roche Palo Alto LLC, priority 2007, dated 2014).

Biological target: human GABA A receptor α5β3γ2 (Homo sapiens (Human), UniProt P18507+P31644)
Experiment: [3H]flumazenil competition binding assay, human GABA A α5β3γ2 receptors expressed in HEK293 cells
Settings: human receptor; displacement of [3H]flumazenil (0.5 nM); means of two determinations; read-out: hKi GABAAa5
Method: The affinity of compounds at GABA A receptor subtypes was measured by competition for [3H]flumazenil (85 Ci/mmol; Roche) binding to HEK293 cells expressing rat (stably transfected) or human (transiently transfected) receptors of composition α1β3γ2, α2β3γ2, α3β3γ2 and α5β3γ2.
Cell pellets were suspended in Krebs-tris buffer (4.8 mM KCl, 1.2 mM CaCl2, 1.2 mM MgCl2, 120 mM NaCl, 15 mM Tris; pH 7.5; binding assay buffer), homogenized by polytron for ca. 20 sec on ice and centrifuged for 60 min at 4° C. (50000 g; Sorvall, rotor: SM24=20000 rpm). The cell pellets were resuspended in Krebs-tris buffer and homogenized by polytron for ca. 15 sec on ice. Protein was measured (Bradford method, Bio-Rad) and aliquots of 1 mL were prepared and stored at −80° C.
Assays were incubated to equilibrium for 1 hour at 4° C. and harvested onto GF/C uni-filters (Packard) by filtration using a Packard harvester and washing with ice-cold wash buffer (50 mM Tris; pH 7.5). After drying, filter-retained radioactivity was detected by liquid scintillation counting. Ki values were calculated using Excel-Fit (Microsoft) and are the means of two determinations.

| SMILES | Ki |
| --- | --- |
| Cc1onc(-c2ccccc2)c1COc1ccc(C(=O)NC[C@@H](C)O)cn1 (racemic) [Example 14, (R,S)—N-(2-Hydroxy-propyl)-6-(5-methyl-3-phenyl-isoxazol-4-ylmethoxy)-nicotinamide] | 2.5 nM |
| Cc1onc(-c2ccccc2)c1COc1ccc(C(=O)N[C@H]2CCCC[C@H]2O)cn1 (racemic) [Example 199, N-((1S,2R) and (1R,2S)-2-Hydroxy-cyclohexyl)-6-(5-methyl-3-phenyl-isoxazol-4-ylmethoxy)-nicotinamide] | 2.8 nM |
| Cc1onc(-c2ccccc2)c1COc1ccc(C(=O)N[C@H]2CCCC[C@H]2O)cn1 (single isomer, unassigned) [Example 204, N-((1S,2R)-2-Hydroxy-cyclohexyl)-6-(5-methyl-3-phenyl-isoxazol-4-ylmethoxy)-nicotinamide or N-((1R,2S)-2-Hydroxy-cyclohexyl)-6-(5-methyl-3-phenyl-isoxazol-4-ylmethoxy)-nicotinamide] | 4.4 nM |
| Cc1onc(-c2ccccc2)c1COc1ccccn1 [Example 1, 2-(5-Methyl-3-phenyl-isoxazol-4-ylmethoxy)-pyridine] | 36.5 nM |
| Cc1cccc(OCc2c(-c3ccccc3)noc2C)n1 [Example 2, 2-Methyl-6-(5-methyl-3-phenyl-isoxazol-4-ylmethoxy)-pyridine] | 3.1 nM |
| Cc1onc(-c2ccccc2)c1COc1ccc(Br)cn1 [Example 3, 5-Bromo-2-(5-methyl-3-phenyl-isoxazol-4-ylmethoxy)-pyridine] | 31.1 nM |
| Cc1onc(-c2ccccc2)c1COc1ccc(C(F)(F)F)cn1 [Example 4, 2-(5-Methyl-3-phenyl-isoxazol-4-ylmethoxy)-5-trifluoromethylpyridine] | 60.8 nM |
| Cc1onc(-c2ccccc2)c1COc1ccc(C#N)cn1 [Example 5, 6-(5-Methyl-3-phenyl-isoxazol-4-ylmethoxy)-nicotinonitrile] | 13.1 nM |
| Cc1onc(-c2ccccc2)c1COc1ccc([N+](=O)[O-])cn1 [Example 6, 2-(5-Methyl-3-phenyl-isoxazol-4-ylmethoxy)-5-nitro-pyridine] | 22.2 nM |
| COC(=O)c1ccc(OCc2c(-c3ccccc3)noc2C)nc1 [Example 7, 6-(5-Methyl-3-phenyl-isoxazol-4-ylmethoxy)-nicotinic acid methyl ester] | 14.2 nM |
| CNC(=O)c1ccc(OCc2c(-c3ccccc3)noc2C)nc1 [Example 8, N-Methyl-6-(5-methyl-3-phenyl-isoxazol-4-ylmethoxy)-nicotinamide] | 4.3 nM |
| CCNC(=O)c1ccc(OCc2c(-c3ccccc3)noc2C)nc1 [Example 9, N-Ethyl-6-(5-methyl-3-phenyl-isoxazol-4-ylmethoxy)-nicotinamide] | 2.9 nM |
| Cc1onc(-c2ccccc2)c1COc1ccc(C(=O)NCCF)cn1 [Example 10, N-(2-Fluoro-ethyl)-6-(5-methyl-3-phenyl-isoxazol-4-ylmethoxy)-nicotinamide] | 4.4 nM |
| Cc1onc(-c2ccccc2)c1COc1ccc(C(=O)NCC(F)F)cn1 [Example 11, N-(2,2-Difluoro-ethyl)-6-(5-methyl-3-phenyl-isoxazol-4-ylmethoxy)-nicotinamide] | 2 nM |
| Cc1onc(-c2ccccc2)c1COc1ccc(C(=O)NCC(F)(F)F)cn1 [Example 12, 6-(5-Methyl-3-phenyl-isoxazol-4-ylmethoxy)-N-(2,2,2-trifluoro-ethyl)-nicotinamide] | 2.2 nM |
| Cc1onc(-c2ccccc2)c1COc1ccc(C(=O)NCCO)cn1 [Example 13, N-(2-Hydroxy-ethyl)-6-(5-methyl-3-phenyl-isoxazol-4-ylmethoxy)-nicotinamide] | 2.6 nM |
| COCCCNC(=O)c1ccc(OCc2c(-c3ccccc3)noc2C)nc1 [Example 15, N-(3-Methoxy-propyl)-6-(5-methyl-3-phenyl-isoxazol-4-ylmethoxy)-nicotinamide] | 5.2 nM |
| Cc1onc(-c2ccccc2)c1COc1ccc(C(=O)NCC2CC2)cn1 [Example 16, N-Cyclopropylmethyl-6-(5-methyl-3-phenyl-isoxazol-4-ylmethoxy)-nicotinamide] | 3.9 nM |
| CCC(CC)CNC(=O)c1ccc(OCc2c(-c3ccccc3)noc2C)nc1 [Example 17, N-(2-Ethyl-butyl)-6-(5-methyl-3-phenyl-isoxazol-4-ylmethoxy)-nicotinamide] | 7.7 nM |
| Cc1onc(-c2ccccc2)c1COc1ccc(C(=O)NCc2nc(C3CC3)no2)cn1 [Example 19, N-(3-Cyclopropyl-[1,2,4]oxadiazol-5-ylmethyl)-6-(5-methyl-3-phenyl-isoxazol-4-ylmethoxy)-nicotinamide] | 13.1 nM |

Second part, the compound after the results:

| Ki | SMILES |
| --- | --- |
| 8 nM | Cc1onc(-c2ccccc2)c1COc1ccc(C(=O)N[C@@H]2CCOC(C)(C)C2)cn1 (racemic) [Example 32, (R,S)—N-(2,2-Dimethyl-tetrahydro-pyran-4-yl)-6-(5-methyl-3-phenyl-isoxazol-4-ylmethoxy)-nicotinamide] |
| 4.8 nM | Cc1onc(-c2ccccc2)c1COc1ccc(C(=O)N[C@@H]2CCCC[C@@H]2O)cn1 (single isomer, unassigned) [Example 203, N-((1R,2S)-2-Hydroxy-cyclohexyl)-6-(5-methyl-3-phenyl-isoxazol-4-ylmethoxy)-nicotinamide or N-((1S,2R)-2-Hydroxy-cyclohexyl)-6-(5-methyl-3-phenyl-isoxazol-4-ylmethoxy)-nicotinamide] |
| 5 nM | Cc1onc(-c2ccccc2)c1COc1ccc(C(=O)N[C@@H]2CCC[C@@H]2O)cn1 (single isomer, unassigned) [Example 210, N-((1R,2S)-2-Hydroxy-cyclopentyl)-6-(5-methyl-3-phenyl-isoxazol-4-ylmethoxy)-nicotinamide or N-((1S,2R)-2-hydroxy-cyclopentyl)-6-(5-methyl-3-phenyl-isoxazol-4-ylmethoxy)-nicotinamide] |
| 2.7 nM | Cc1onc(-c2ccccc2)c1COc1ccc(C(=O)N[C@H]2CCC[C@H]2O)cn1 (single isomer, unassigned) [Example 211, N-((1S,2R)-2-Hydroxy-cyclopentyl)-6-(5-methyl-3-phenyl-isoxazol-4-ylmethoxy)-nicotinamide or N-((1R,2S)-2-hydroxy-cyclopentyl)-6-(5-methyl-3-phenyl-isoxazol-4-ylmethoxy)-nicotinamide] |
| 2 nM | Cc1onc(-c2ccccc2)c1COc1ccc(C(=O)N[C@H]2CCC[C@@H]2O)cn1 (single isomer, unassigned) [Example 212, N-((1S,2S)-2-Hydroxy-cyclopentyl)-6-(5-methyl-3-phenyl-isoxazol-4-ylmethoxy)-nicotinamide or N-((1R,2R)-2-hydroxy-cyclopentyl)-6-(5-methyl-3-phenyl-isoxazol-4-ylmethoxy)-nicotinamide] |
| 1.6 nM | Cc1onc(-c2ccccc2)c1COc1ccc(C(=O)N[C@@H]2CCC[C@H]2O)cn1 (single isomer, unassigned) [Example 213, N-((1R,2R)-2-Hydroxy-cyclopentyl)-6-(5-methyl-3-phenyl-isoxazol-4-ylmethoxy)-nicotinamide or N-((1S,2S)-2-hydroxy-cyclopentyl)-6-(5-methyl-3-phenyl-isoxazol-4-ylmethoxy)-nicotinamide] |
| 0.7 nM | Cc1onc(-c2ccc(Cl)cc2)c1COc1ccc(C(=O)N[C@@H]2CCC[C@H]2O)cn1 (single isomer, unassigned) [Example 259, 6-[3-(4-Chloro-phenyl)-5-methyl-isoxazol-4-ylmethoxy]-N-((1R,2R)-2-hydroxy-cyclopentyl)-nicotinamide or 6-[3-(4-chloro-phenyl)-5-methyl-isoxazol-4-ylmethoxy]-N-((1S,2S)-2-hydroxy-cyclopentyl)-nicotinamide] |
| 0.5 nM | Cc1onc(-c2ccc(Cl)cc2)c1COc1ccc(C(=O)N[C@H]2CCC[C@@H]2O)cn1 (single isomer, unassigned) [Example 260, 6-[3-(4-Chloro-phenyl)-5-methyl-isoxazol-4-ylmethoxy]-N-((1S,2S)-2-hydroxy-cyclopentyl)-nicotinamide or 6-[3-(4-chloro-phenyl)-5-methyl-isoxazol-4-ylmethoxy]-N-((1R,2R)-2-hydroxy-cyclopentyl)-nicotinamide] |
| 22.6 nM | O=C(N[C@@H]1CCC[C@H]1O)c1ccc(OCc2conc2-c2ccc(F)cc2)nc1 (single isomer, unassigned) [Example 332, 6-[3-(4-Fluoro-phenyl)-isoxazol-4-ylmethoxy]-N-((1R,2R)-2-hydroxy-cyclopentyl)-nicotinamide or 6-[3-(4-fluoro-phenyl)-isoxazol-4-ylmethoxy]-N-((1S,2S)-2-hydroxy-cyclopentyl)-nicotinamide] |
| 29.2 nM | O=C(N[C@@H]1CCC[C@H]1O)c1ccc(OCc2conc2-c2ccc(F)cc2)nc1 (single isomer, unassigned) [Example 341, 6-[3-(4-Fluoro-phenyl)-isoxazol-4-ylmethoxy]-N-((1R,2R)-2-hydroxy-cydopentyl)-nicotinamide or 6-[3-(4-fluoro-phenyl)-isoxazol-4-ylmethoxy]-N-((1S,2S)-2-hydroxy-cydopentyl)-nicotinamide] |
| 19.4 nM | Cc1onc(-c2ccccc2)c1COc1ccc(C(=O)NC[C@H]2CC(=O)NO2)cn1 [Example 18] |
| 21.6 nM | Cc1onc(-c2ccccc2)c1COc1ccc(C(=O)NCc2cc(C3CC3)[nH]n2)cn1 [Example 20, N-(5-Cyclopropyl-1H-pyrazol-3-ylmethyl)-6-(5-methyl-3-phenyl-isoxazol-4-ylmethoxy)-nicotinamide] |
